Measurements from patent US12097192B2 (Corcept Therapeutics Incorporated, priority 2019, dated 2024).

How the values were obtained:
Type in all cases: in vivo, human
[1] = system: Cushing's syndrome patients; assay: Cushing's syndrome patient study: glucose control / hyperglycemia response; details: for Fructosamine, IGT mean change from Baseline to Last Observed / HOMA-IR, IGT mean change from Baseline to Last Observed / AUCglucose mean change from Baseline to Last Observed / AUCinsulin mean change from Baseline to Last Observed: All Subjects
Source text: (§1) All patients gave informed consent before participating in any study-related procedures. […] The study protocol called for patient visits to the study site at screening, on Day 1 (baseline), Weeks 2, 4, 6, 8, 10, and 12, and after a 4-week follow-up period for Group 1. For Group 2, the protocol called for patient visits to the study site at screening, on Day 1 (baseline), Weeks 2, 4, 6, 8, 10, 12, 14, and 16, and after a 4-week follow-up period. Patient dosing will be done at home, except on days of study visits. Response criteria for hyperglycemia were changes from baseline in glucose tolerance as measured by: ≥0.5% decrease in HbA1c, normalization or ≥50 mg/dL decrease in 2-hr OGTT glucose, or decrease in total daily insulin (≥25%) or sulfonylurea dose (≥50%). Response criteria for hypertension (HTN) was a ≥5 mm Hg decrease in mean systolic and/or diastolic blood pressure (SBP/DBP). […] It ignores noncompliance, protocol deviations, withdrawal, and anything that happens after randomization. In contrast, per-protocol (PP) analysis refers to inclusion in the analysis of only those patients who strictly adhered to the protocol. The PP analysis provides an estimate of the true efficacy of an intervention, i.e., among those who completed the treatment as planned.

[2] = system: Cushing's syndrome patients; assay: Cushing's syndrome patient study: depression (BDI-II), Cushing QOL, cognitive tests; details: All Subjects
Source text: as §1, with “visits.” for “visits. Response criteria for hyperglycemia were changes from baseline in glucose tolerance as measured by: ≥0.5% decrease in HbA1c, normalization or ≥50 mg/dL decrease in 2-hr OGTT glucose, or decrease in total daily insulin (≥25%) or sulfonylurea dose (≥50%). Response criteria for hypertension (HTN) was a ≥5 mm Hg decrease in mean systolic and/or diastolic blood pressure (SBP/DBP).”

[3] = system: Cushing's syndrome patients; assay: Cushing's syndrome patient study: POMC/proACTH and HPA axis; details: for POMC and proACTH mean change from Baseline to Last Observed: All Subjects
Source text: as §1, with “visits.” for “visits. Response criteria for hyperglycemia were changes from baseline in glucose tolerance as measured by: ≥0.5% decrease in HbA1c, normalization or ≥50 mg/dL decrease in 2-hr OGTT glucose, or decrease in total daily insulin (≥25%) or sulfonylurea dose (≥50%). Response criteria for hypertension (HTN) was a ≥5 mm Hg decrease in mean systolic and/or diastolic blood pressure (SBP/DBP).”

[4] = mITT, Group 1 (100-200 mg/day, 12 weeks)
[5] = mITT, Group 2 (250-400 mg/day, 16 weeks)
[6] = mPP, Group 1 (100-200 mg/day, 12 weeks)
[7] = mPP, Group 2 (250-400 mg/day, 16 weeks)

Cn1cc(S(=O)(=O)N2CCC3=Cc4c(cnn4-c4ccc(F)cc4)C[C@]3(C(=O)c3cc(C(F)(F)F)ccn3)C2)cn1 [relacorilant, (R)-(1-(4-fluorophenyl)-6-((1-methyl-1H-pyrazol-4-yl)sulfonyl)-4,4a,5,6,7,8-hexahydro-1H-pyrazolo[3,4-g]isoquinolin-4a-yl) (4-(trifluoromethyl)pyridin-2-yl)methanone]
Fructosamine, IGT mean change from Baseline to Last Observed [1, 4]: -6.85 µmol/L
HOMA-IR, IGT mean change from Baseline to Last Observed [1, 4]: 0.05
Fructosamine, IGT mean change from Baseline to Last Observed [1, 5]: -21.58 µmol/L
HOMA-IR, IGT mean change from Baseline to Last Observed [1, 5]: −3.2
Fructosamine, IGT mean change from Baseline to Last Observed ([1]; mITT, Overall): -13.92 µmol/L
HOMA-IR, IGT mean change from Baseline to Last Observed ([1]; mITT, Overall): −1.58
Fructosamine, IGT mean change from Baseline to Last Observed [1, 6]: -8.08 µmol/L
HOMA-IR, IGT mean change from Baseline to Last Observed [1, 6]: 0.39
Fructosamine, IGT mean change from Baseline to Last Observed [1, 7]: -18.92 µmol/L
HOMA-IR, IGT mean change from Baseline to Last Observed [1, 7]: −3.28
Fructosamine, IGT mean change from Baseline to Last Observed ([1]; mPP, Overall): -13.28 µmol/L
HOMA-IR, IGT mean change from Baseline to Last Observed ([1]; mPP, Overall): −1.37
AUCglucose mean change from Baseline to Last Observed [1, 4]: -3.11 mmol·h/L
AUCinsulin mean change from Baseline to Last Observed [1, 4]: −33.28 hr * μU/mL
AUCglucose mean change from Baseline to Last Observed [1, 5]: -0.8 mmol·h/L
AUCinsulin mean change from Baseline to Last Observed [1, 5]: −32.26 hr * μU/mL
AUCglucose mean change from Baseline to Last Observed ([1]; mITT, Overall): -1.96 mmol·h/L
AUCinsulin mean change from Baseline to Last Observed ([1]; mITT, Overall): −32.77 hr * μU/mL
AUCglucose mean change from Baseline to Last Observed [1, 6]: -3.63 mmol·h/L
AUCinsulin mean change from Baseline to Last Observed [1, 6]: −38.79 hr * μU/mL
AUCglucose mean change from Baseline to Last Observed [1, 7]: -1.24 mmol·h/L
AUCinsulin mean change from Baseline to Last Observed [1, 7]: −37.39 hr * μU/mL
AUCglucose mean change from Baseline to Last Observed ([1]; mPP, Overall): -2.48 mmol·h/L
AUCinsulin mean change from Baseline to Last Observed ([1]; mPP, Overall): −38.12 hr * μU/mL
AUCglucose in patients with hyperglycemia ([1]; Cushing's syndrome patients): statistically significant reduction
hyperglycemia response rate ([1]; HD group (doses up to 400 mg), week 16): 50%
hyperglycemia response rate ([1]; LD group (doses up to 200 mg), week 12): 15.4%
patients with hyperglycaemia showing glycaemic improvement (responders/patients) ([1]; doses up to 400 mg): 6/12
BDI-II Total Score mean change from Baseline to Last Observed [2, 4]: −3.06
Cushing QOL Score mean change from Baseline to Last Observed [2, 4]: 6.25
Part A - Total Time to Complete T mean change from Baseline to Last Observed [2, 4]: −3.65
Part B - Total Time to Complete T mean change from Baseline to Last Observed [2, 4]: −15.94
BDI-II Total Score mean change from Baseline to Last Observed [2, 5]: −3.94
Cushing QOL Score mean change from Baseline to Last Observed [2, 5]: 8.07
Part A - Total Time to Complete T mean change from Baseline to Last Observed [2, 5]: −4.67
Part B - Total Time to Complete T mean change from Baseline to Last Observed [2, 5]: −34.6
BDI-II Total Score mean change from Baseline to Last Observed ([2]; mITT, Overall): −3.48
Cushing QOL Score mean change from Baseline to Last Observed ([2]; mITT, Overall): 7.13
Part A - Total Time to Complete T mean change from Baseline to Last Observed ([2]; mITT, Overall): −4.13
Part B - Total Time to Complete T mean change from Baseline to Last Observed ([2]; mITT, Overall): −24.69
BDI-II Total Score mean change from Baseline to Last Observed [2, 6]: −4.47
Cushing QOL Score mean change from Baseline to Last Observed [2, 6]: 6.25
Part A - Total Time to Complete T mean change from Baseline to Last Observed [2, 6]: −3.65
Part B - Total Time to Complete T mean change from Baseline to Last Observed [2, 6]: −15.94
BDI-II Total Score mean change from Baseline to Last Observed [2, 7]: −3.87
Cushing QOL Score mean change from Baseline to Last Observed [2, 7]: 7.64
Part A - Total Time to Complete T mean change from Baseline to Last Observed [2, 7]: −4.67
Part B - Total Time to Complete T mean change from Baseline to Last Observed [2, 7]: −34.6
BDI-II Total Score mean change from Baseline to Last Observed ([2]; mPP, Overall): −4.19
Cushing QOL Score mean change from Baseline to Last Observed ([2]; mPP, Overall): 6.9
Part A - Total Time to Complete T mean change from Baseline to Last Observed ([2]; mPP, Overall): −4.13
Part B - Total Time to Complete T mean change from Baseline to Last Observed ([2]; mPP, Overall): −24.69
POMC and proACTH mean change from Baseline to Last Observed [3, 5]: 7.91 pmol/L
POMC and proACTH mean change from Baseline to Last Observed ([3]; mITT, Overall): 7.91 pmol/L
POMC and proACTH mean change from Baseline to Last Observed [3, 7]: 7.91 pmol/L
POMC and proACTH mean change from Baseline to Last Observed ([3]; mPP, Overall): 7.91 pmol/L
restoration of the suppressed HPA axis ([3]; patients with adrenal Cushing syndrome): half of the cases
